The values below come from a flash point compilation (Sun et al. 2020).

Structures are written as SMILES. Structures can show the parent of a compound that is named as a salt.

Assay in series [1]: not given
This is another data set of the same source.

The molecule `CCCCBr` [1-bromobutane] displayed a flash point of 13 °C. This molecule yielded a flash point in series [1] of 18.00 °C.

The molecule `CCCBr` [1-bromopropane] yielded a flash point of 21 °C. The flash point in series [1] worked out at 26.00 °C.

`CC(C)CCl` [1-chloro-2-methylpropane] showed a flash point of 21 °C. Further, the flash point in series [1] was -10.00 °C.

Consider `CCCCl` [1-chloropropane], for which the flash point is -31 °C. In series [1], this molecule showed a flash point of -18.00 °C.

`CCOCCO` [2-ethoxyethanol] showed a flash point of 44 °C. For the same molecule, in series [1], the flash point was 41.00 °C.

`CC(C)CC(=O)O` [3-methylbutanoic acid] gave a flash point of 74 °C. The flash point in series [1] was 70.00 °C.

For the molecule `c1ccc(CCc2ccccc2)cc1` [bibenzyl], the flash point amounted to 129 °C.

Consider `CCBr` [bromoethane], for which the flash point is -20 °C. Also, in series [1], the flash point is -23.00 °C.

For the molecule `BrC(Br)Br` [bromoform], the flash point came out at 83 °C.

On to `C=CC(=O)OCCCC` [butyl acrylate], for which the flash point was 39 °C.

Molecule `CCCCOC(=O)CC` [butyl propionate] had a flash point of 32 °C.

In the case of `Cc1ccc(C(C)C)cc1O` [carvacrol], the flash point was found to be 106 °C.

For the molecule `CC(C)=CCCC(C)CC=O` (stereo not given) [citronellal], the flash point is 75 °C.

In turn, `O=C1CCC1` [cyclobutanone] gave a flash point of 10 °C.

`N#CC1CCCCC1` [cyclohexanecarbonitrile] showed a flash point of 65 °C.

As to `SC1CCCCC1` [cyclohexanethiol], the flash point turned out to be 43 °C.

Molecule `C1CCC2OC2C1` (stereo not given) [cyclohexene oxide] yielded a flash point of 24 °C.

The molecule `SC1CCCC1` [cyclopentanethiol] registered a flash point of 25 °C.

Take `N#CC1CC1` [cyclopropanecarbonitrile]: the flash point is 32 °C.

Consider `NC1CC1` [cyclopropylamine], for which the flash point was -25 °C.

With `CC(C)(C)SSC(C)(C)C` [di-tert-butyl disulfide], the flash point was found to be 67 °C.

For the molecule `CC(C)(C)OOC(C)(C)C` [di-tert-butyl peroxide], the flash point came out at 12 °C.

`CCCCSSCCCC` [dibutyl disulfide] showed a flash point of 113 °C.

The molecule `CCCCOC(=O)c1ccccc1C(=O)OCCCC` [dibutyl phthalate] returned a flash point of 117 °C.

In turn, `CCCCOC(=O)CCCCCCCCC(=O)OCCCC` [dibutyl sebacate] yielded a flash point of 167 °C.

On to `CCCCSCCCC` [dibutyl sulfide], for which the flash point was 60 °C.

Molecule `CCOC(=O)CCCC(=O)OCC` [diethyl glutarate] registered a flash point of 96 °C.

`CCOC(=O)c1ccccc1C(=O)OCC` [diethyl phthalate] gave a flash point of 160 °C.

`CCOS(=O)OCC` [diethyl sulfite] had a flash point of 53 °C.

The molecule `CCN(C#N)CC` [diethylcyanamide] displayed a flash point of 69 °C.

`COCCOCCOC` [diethylene glycol dimethyl ether] showed a flash point of 51 °C.

`CC(C)NC(C)C` [diisopropylamine] registered a flash point of -6 °C.

In turn, `COC(=O)OC` [dimethyl carbonate] came in with a flash point of 18 °C. This molecule returned a flash point in series [1] of -1.00 °C.

Regarding `CNC` [dimethylamine], the flash point was -18 °C.

`CCCNCCC` [dipropylamine] had a flash point of 7 °C.

On to `C=CC1CCCCC1` [ethenylcyclohexane], for which the flash point was 22 °C.

In turn, `CCOC(=O)c1ccccc1` [ethyl benzoate] returned a flash point of 88 °C.

On to `CCOC(=O)CCl` [ethyl chloroacetate], for which the flash point stood at 53 °C.

`CCC1CCCC1` [ethyl cyclopentane] returned a flash point of 15 °C.

The molecule `O=C1OCCO1` [ethylene carbonate] gave a flash point of 150 °C.

The molecule `FC1CCCCC1` [fluorocyclohexane] gave a flash point of 5 °C.

With `OCC(O)CO` [glycerol], the flash point stood at 184 °C.

`CCCCCCC(=O)O` [heptanoic acid] displayed a flash point of 112 °C.

`Oc1ccc(O)cc1` [hydroquinone]: the flash point was 165 °C.

`Ic1ccccc1` [iodobenzene]: the flash point was 74 °C.

In turn, `C=C(C)C=O` [isobutenal] yielded a flash point of -0 °C.

`C=C(C)C` [isobutene] showed a flash point of -76 °C.

Molecule `CC(C)COC(=O)C(C)C` [isobutyl isobutyrate] displayed a flash point of 40 °C.

As for `CCCCCC#CC(=O)OC` [methyl 2-octynoate], the flash point worked out at 88 °C.

In the case of `CCCC(=O)OC` [methyl butyrate], the flash point is 11 °C.

`COC(=O)C1CC1` [methyl cyclopropanecarboxylate]: the flash point was 17 °C.

Molecule `CCCCCCC(=O)OC` [methyl heptanoate] registered a flash point of 52 °C.

Consider `COC(=O)C(C)C` [methyl isobutyrate], for which the flash point was 3 °C.

`C=C(C)C(C)=O` [methyl isopropenyl ketone]: the flash point is 13 °C.

Consider `CCC(=O)OC` [methyl propionate], for which the flash point worked out at 6 °C.

As to `CC1=CC=CC1` [methylcyclopentadiene], the flash point stood at 26 °C.

Take `CCCCCCCCC=O` [n-nonanal]: the flash point turned out to be 71 °C.

Molecule `CCCCCOC(C)=O` [n-pentyl acetate] registered a flash point of 25 °C.

With `CCCOC(C)=O` [n-propyl acetate], the flash point came to 10 °C.

Molecule `CCc1ccccc1CC` [o-diethyl benzene] yielded a flash point of 49 °C.

For `Cc1ccc(O)cc1` [p-cresol], the flash point came out at 86 °C.

As for `O=C=Nc1ccccc1` [phenyl isocyanate], the flash point amounted to 51 °C.

In turn, `CCC(=O)O` [propionic acid] had a flash point of 51 °C.

As for `c1cc[nH]c1` [pyrrole], the flash point was 33 °C.

In the case of `c1ccc2ncccc2c1` [quinoline], the flash point was 105 °C.

Turning to `CCC(C)SC(C)CC` (stereo not given) [s-butyl sulfide], the flash point is 39 °C.

`CCC(C)c1ccccc1` (stereo not given) [sec-butylbenzene]: the flash point was found to be 45 °C.

On to `CC(C)(C)OC=O` [t-butyl formate], for which the flash point was -9 °C.

Turning to `CSC(C)(C)C` [t-butyl methyl sulfide], the flash point was -3 °C.

Molecule `CC(C)(C)ON=O` [t-butyl nitrite] yielded a flash point of -23 °C.

For `CCC(=O)OC(C)(C)C` [t-butyl propionate], the flash point was 20 °C.

Molecule `COC(C)(C)C` [tert-butyl methyl ether] came in with a flash point of -28 °C.

In turn, `CC(C)(C)N` [tert-butylamine] showed a flash point of -9 °C.

With `C1CCSC1` [thiacyclopentane], the flash point worked out at 12 °C.

`c1ccc(CN(Cc2ccccc2)Cc2ccccc2)cc1` [tribenzylamine] showed a flash point of 203 °C.

In the case of `CCN(CC)CC` [triethylamine], the flash point was -17 °C.

Consider `CCCCCCCCCCCc1ccccc1` [undecylbenzene], for which the flash point was found to be 144 °C.
